# Assay results from paper PMC4122130 (Journal of neuroscience research, 2012).
# Target: α7 nAChR (Homo sapiens, UniProt P36544)
# Assay: whole-cell patch clamp, inhibition of […] ACh-evoked currents by […] 4R
# Format: cell-based
# Conditions: shsy5y cells
# Chain of α7 nAChR (P36544 23-502): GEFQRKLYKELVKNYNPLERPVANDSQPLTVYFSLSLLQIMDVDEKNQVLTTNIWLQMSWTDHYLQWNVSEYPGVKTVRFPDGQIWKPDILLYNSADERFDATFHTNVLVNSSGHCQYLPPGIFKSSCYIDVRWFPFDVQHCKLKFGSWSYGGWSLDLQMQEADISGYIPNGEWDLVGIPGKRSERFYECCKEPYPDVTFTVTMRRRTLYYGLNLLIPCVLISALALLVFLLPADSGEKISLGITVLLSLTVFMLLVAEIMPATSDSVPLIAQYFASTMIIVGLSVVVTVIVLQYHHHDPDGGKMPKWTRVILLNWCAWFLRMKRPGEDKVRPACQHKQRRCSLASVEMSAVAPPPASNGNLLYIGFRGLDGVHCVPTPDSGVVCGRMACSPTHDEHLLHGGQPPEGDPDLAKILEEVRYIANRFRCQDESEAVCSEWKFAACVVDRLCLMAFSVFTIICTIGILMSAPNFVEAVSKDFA
smiles,measurement,value
"C/C1=C\[C@H](O)C[C@@](C)(O)/C=C/[C@H](C(C)C)CC/C(C)=C/CC1 [4R, (1S,2E,4R,6R,7E,11E)-cembra-2,7,11-triene-4,6-diol]",% inhibition at 25 μM,82% ± 18% inhibition at 25 μM
